Laboratory results reported in patent publication US20190092761A1, “Methods and Compositions for Inhibition of Bromodomain and Extratermial Proteins” (Convergene LLC, priority 2014, published 2019).

Biological target: T1, BRD4 bromodomains (Homo sapiens, UniProt O60885)
T1 construct: fused on or other part: T7 phage capsid protein (fusion for phage display)
Experiment: BROMOscan bromodomain binding assay
Conditions: Kd classes; BRD4 bromodomains displayed on T7 phage, competition with acetylated peptide ligand, 11 concentrations 0 to 10 μM; read-out: BROMOscan Relative Activity
Experimental: Bromodomain assays were conducted to measure interactions between certain compounds and bromodomains. In order to measure compounds' direct activity against BRD4, dissociation constants ([…]) of the bromodomain inhibitors of the present invention were obtained using a biophysical binding assay, BROMOscan℠ (DiscoveRx, San Diego, Calif.), a modified phage-display system originally developed for kinases (Nat Biotechnol. 2005 March; 23(3):329-36).
The assays were conducted according to BROMOscan protocol from Discover Rx. Briefly, BRD4 bromodomains expressed as a fusion capsid protein of T7 phage were bound to acetylated peptide ligand on a solid phase and competition bindings were performed. T7 phage strains displaying bromodomains were grown in parallel in 24-well blocks in an E. coli host derived from the BL21 strain. E. coli were grown to log-phase and infected with T7 phage from a frozen stock (multiplicity of infection=0.4) and incubated with shaking at 32° C. until lysis (90-150 minutes). The lysates were centrifuged (5,000×g) and filtered (0.2 μm) to remove cell debris. Streptavidin-coated magnetic beads were treated with biotinylated small molecule or acetylated peptide ligands for 30 minutes at room temperature to generate affinity resins for bromodomain assays. The liganded beads were blocked with excess biotin and washed with blocking buffer (SeaBlock (Pierce), 1% BSA, 0.05% Tween 20, 1 mM DTT) to remove unbound ligand and to reduce non-specific phage binding. Binding reactions were assembled by combining bromodomains, liganded affinity beads, and test compounds in 1× binding buffer (17% SeaBlock, 0.33×PBS, 0.04% Tween 20, 0.02% BSA, 0.004% Sodium azide, 7.4 mM DTT). Test compounds were prepared as 1000× stocks in 100% DMSO and subsequently diluted 1:10 in monoethylene glycol (MEG) to create stocks at 100× the screening concentration (resulting stock solution is 10% DMSO/90% MEG). The compounds were then diluted directly into the assays such that the final concentration of DMSO and MEG were 0.1% and 0.9%, respectively. All reactions were performed in polystyrene 96-well plates in a final volume of 0.135 ml. The assay plates were incubated at room temperature with shaking for 1 hour and the affinity beads were washed with wash buffer (1×PBS, 0.05% Tween 20). The beads were then re-suspended in elution buffer (1×PBS, 0.05% Tween 20, 2 μM non-biotinylated affinity ligand) and incubated at room temperature with shaking for 30 minutes. The bromodomain concentration in the eluates was measured by qPCR. Data was collected at 11 compound concentrations ranging from 0 to 10 μM. Kd values were then derived from a standard dose-response curve generated with Hill equation (Hill Slope was set to −1) and a non-linear least square fit with the Levenberg-Marquardt algorithm.
Response=Background+Signal−Background/1+(Kd Hill Slope/Dose Hill Slope)
Data is reported in Table 3 as Relative Activity, wherein a Kd of less than 100 nM is denoted by (+++), a Kd of between 100 nM and 1 μM is denoted by (++), and a Kd of 1 μM to greater than 10 μM is denoted by (+).

Row | Structure (SMILES) | Kd [nM]
1 | Cc1noc(C)c1-c1ccc2[nH]c(=O)cc(NN3CCc4ccccc4C3)c2c1 [Example 1] | < 100
2 | Cc1noc(C)c1-c1ccc2[nH]c(=O)cc(NN(C)c3ccccc3)c2c1 [Example 5, 6-(3,5-dimethylisoxazol-4-yl)-4-(2-methyl-2-phenylhydrazinyl)-quinolin-2(1H)-one] | < 100
3 | Cc1noc(C)c1-c1ccc2[nH]c(=O)cc(NN(CC(=O)O)c3ccccc3)c2c1 [Example 6] | < 100
4 | CC(=O)N(Nc1cc(=O)[nH]c2ccc(-c3c(C)noc3C)cc12)c1ccccc1 [Example 7] | < 100
5 | Cc1noc(C)c1-c1cc2[nH]c(=O)c(C)c(NNc3ccccc3Cl)c2cc1-c1c(C)noc1C [Example 60] | < 100
6 | Cc1noc(C)c1-c1ccc2[nH]c(=O)cc(NCc3cccc(Cl)c3)c2c1 [Example 108] | < 100
7 | Cc1noc(C)c1-c1ccc2[nH]c(=O)cc(NCc3cccc(Br)c3)c2c1 [Example 112] | < 100
8 | COc1cccc(CNc2cc(=O)[nH]c3ccc(-c4c(C)noc4C)cc23)c1 [Example 116] | < 100
9 | Cc1noc(C)c1-c1ccc2[nH]c(=O)cc(NCc3cccc(C(F)(F)F)c3)c2c1 [Example 120] | 100 to 1000
10 | Cc1noc(C)c1-c1ccc2[nH]c(=O)cc(NCc3cc(Cl)cc(Cl)c3)c2c1 [Example 124] | 100 to 1000
11 | Cc1noc(C)c1-c1ccc2[nH]c(=O)cc(NCc3ccc(Cl)cc3Cl)c2c1 [Example 128] | 100 to 1000
12 | Cc1noc(C)c1-c1ccc2[nH]c(=O)cc(NCc3ccc(Cl)cc3)c2c1 [Example 132] | 100 to 1000
13 | Cc1noc(C)c1-c1ccc2[nH]c(=O)cc(NCc3ccc(-c4ccccc4)cc3)c2c1 [Example 140] | 100 to 1000
14 | Cc1noc(C)c1-c1ccc2[nH]c(=O)cc(NCC3CCCCC3)c2c1 [Example 144] | 100 to 1000
15 | Cc1noc(C)c1-c1cc2c(NCc3ccccc3)cc(=O)[nH]c2cc1C(=O)N(C)C [Example 160, 4-(benzylamino)-6-(3,5-dimethylisoxazol-4-yl)-N,N-dimethyl-2-oxo-1,2-dihydroquinoline-7-carboxamide] | < 100
16 | Cc1noc(C)c1-c1cc2c(NCc3ccccc3)cc(=O)[nH]c2cc1C(N)=O [Example 161, 4-(benzylamino)-6-(3,5-dimethylisoxazol-4-yl)-2-oxo-1,2-dihydroquinoline-7-carboxamide] | < 100
17 | Cc1noc(C)c1-c1cc2[nH]c(=O)cc(NCc3ccccc3)c2cc1-c1c(C)noc1C [Example 162, 4-(benzylamino)-6,7-bis(3,5-dimethylisoxazol-4-yl)quinolin-2(1H)-one] | < 100
18 | O=c1cc(NCc2cccc(Cl)c2)c2cc(-c3cccnc3)ccc2[nH]1 [Example 163, 4-(3-chlorobenzylamino)-6-(pyridin-3-yl)quinolin-2(1H)-one] | < 100
19 | COc1cncc(-c2ccc3[nH]c(=O)cc(NCc4cccc(Cl)c4)c3c2)c1 [Example 164, 4-(3-chlorobenzylamino)-6-(5-methoxypyridin-3-yl)quinolin-2(1H)-one] | < 100
20 | COc1ncccc1-c1ccc2[nH]c(=O)cc(NCc3cccc(Cl)c3)c2c1 [Example 165, 4-(3-chlorobenzylamino)-6-(2-methoxypyridin-3-yl)quinolin-2(1H)-one] | > 1000
21 | O=c1cc(NCc2cccc(Cl)c2)c2cc(-c3ccncc3)ccc2[nH]1 [Example 166] | < 100
22 | Cn1cc(-c2ccc3[nH]c(=O)cc(NCc4cccc(Cl)c4)c3c2)cn1 [Example 167, 4-(3-chlorobenzylamino)-6-(1-methyl-1H-pyrazol-4-yl)quinolin-2(1H)-one] | < 100
23 | Cc1noc(C)c1-c1ccc2[nH]c(=O)cc(NCc3ccccc3)c2c1 [Example 170, 4-(benzylamino)-6-(3,5-dimethylisoxazol-4-yl)quinolin-2(1H)-one] | < 100
24 | COc1ccccc1CNc1cc(=O)[nH]c2ccc(-c3c(C)noc3C)cc12 [Example 171] | < 100
25 | Cc1noc(C)c1-c1ccc2[nH]c(=O)cc(NCc3ccccc3F)c2c1 [Example 172] | < 100
26 | Cc1noc(C)c1-c1ccc2[nH]c(=O)cc(N[C@H](C)c3ccccc3)c2c1 [Example 173] | < 100
27 | Cc1noc(C)c1-c1ccc2[nH]c(=O)cc(NCc3cccnc3)c2c1 [Example 175] | 100 to 1000
